Test results: patent US20010049389A1, “Arthropod-controlling composition” (priority 2000, published 2001)

How the values were obtained:
Format in all cases: in vivo
[1] = tested on: adult houseflies (Musca domestica); test: Test Example 1: oil solution spray in glass chamber, knock-down of houseflies; conditions: 0.7 ml of 0.5% oil solution (Preparation example 9) sprayed in 0.34 m^3 glass chamber
Experimental: (§1) Ten (5 males and 5 females) adult houseflies (Musca domestica) were released in a glass chamber (70 cm cube, capacity: 0.34 m^3). Seven-tenth milliliter (0.7 ml) of the oil solution obtained in Preparation example 9 was applied into the chamber with a spray gun at a pressure of 0.9 kg/cm^2. Fifteen minutes after spraying, the knocked-down houseflies were counted. Reference compound was also tested.

[2] = tested on: female adult common mosquitoes (Culex pipiens pallens); test: Test Example 2: oil solution spray in glass chamber, knock-down of common mosquitoes; conditions: 0.7 ml of 0.5% oil solution sprayed in 0.34 m^3 glass chamber, two repetitions
Experimental: as §1
The same procedure was performed as in Test example 1 except that ten female adult common mosquitoes (Culex pipiens pallens) in place of houseflies were used. As a result of two repetitions, the knock-down percentage at 15 minutes after spraying was 100%.

[3] = tested on: adult German cockroaches (Blattella germanica); test: Test Example 4: smoking formulation in 28 m^3 chamber, German cockroaches; conditions: 10 g smoking (Preparation example 25) in 28 m^3 chamber
From the text: (§2) In a test chamber of 3 m×4 m and 2.3 m in height (28 m^3), two plastic cups were put at two corners, wherein each cup has ten (5 males and 5 females) adult German cockroaches (Blattella germanica) therein. Ten grams (10 g) of the smoking obtained in Preparation example 25 and 50g of magnesium oxide were charged into each of the cells in an aluminum container having an aluminum wall. The cell charged magnesium oxide has small holes. The aluminum container was dipped into water in the plastic container set in the test chamber. The smoking was heated to release the vaporized active ingredient by the reaction heats of magnesium oxide with water. After 2 hours, knock-down percentage was observed. Further, the cockroaches were transferred to a clean plastic cup and given foods and water. The mortality was observed after 7 days.

[4] = tested on: adult American cockroaches (Periplaneta americana); test: Test Example 4: smoking formulation in 28 m^3 chamber, American cockroaches; conditions: 10 g smoking (Preparation example 25) in 28 m^3 chamber
From the text: as §2
Furthermore, the same tests were performed except that six (3 males and 3 females) adult smokybrown cockroaches (Periplaneta fuliginosa) and six (3 males and 3 females) adult American cockroaches (Periplaneta americana) were used in place of ten German cockroaches.

[5] = tested on: adult German cockroaches (Blattella germanica); test: Test Example 5: heating fumigant (ceramic plate) in 5.8 m^3 chamber, German cockroaches; conditions: heating fumigant (Preparation example 24, 500 mg) at about 200° C. in 5.8 m^3 chamber
Experimental: On the bottom of a cubic chamber having 1.8 m of side (5.8 m^3), the heating fumigant (ceramic plate) obtained in Preparation example 24 with an electric heater was set in the center. Two plastic cups were put at two corners in the chamber, wherein each cup has ten (5 males and 5 females) adult German cockroaches (Blattella germanica) therein. Two hours after turning on an electric current, the ceramic plate was heated to about 200° C. (200±5° C.) and the active ingredient was vaporized. The heating temperature was estimated by measuring a surface temperature of the ceramic plate with radiation pyrometer (TR-0506C produced by Minolta Company) in advance. Then, the knocked-down cockroaches were counted and the knock-down percentage was calculated. Further, the cockroaches were transferred to a clean plastic cup and given foods and water. The mortality was observed after 7 days.

[6] = tested on: female adult common mosquitoes (Culex pipiens pallens); test: Test Example 6: mosquito-coil in 0.34 m^3 chamber, knock-down of common mosquitoes; conditions: 1% mosquito-coil (Preparation example 18) burnt in 0.34 m^3 chamber, after 15 minutes
Experimental: On the bottom center of a cubic chamber having 70 cm of side (0.34 m^3), the mosquito-coil obtained in Preparation example 18 was set in a mosquito-coil holder. The mosquito-coil was ignited and the air in the chamber was stirred with a battery-type small electric fun. After that, the mosquito-coil and the electric fun were taken out and twenty female adult common mosquitoes (Culex pipiens pallens) were released into the chamber. After 15 minutes, the knock-down percentage was observed. Reference compound was also tested.

[7] = tested on: cat flea (Ctenocephalides felis) eggs; test: Test Example 8: treated filter paper, hatching of cat flea eggs
Experimental: A designated amount of the Pyrone Compound was dissolved in acetone to give a 0.2 ml solution, which was uniformly treated on a filter paper having 3.8 cm in diameter, and air-dried for one hour. The filter paper was set on an aluminum plate of 4 cm in diameter. Twenty cat flea (Ctenocephalides felis) eggs were put on the filter paper and the plate was kept at 25±3° C. and 70-90% of humidity in a plastic Petri dish. After 7 days, the hatching was observed. The tests were repeated three times and the results are given in […]

[8] = tested on: adult American house dust mites (Dermatophagoides farinae); test: Test Example 10: treated drawing paper, American house dust mites; conditions: drawing paper 800 mg/m^2, 25° C., 65% humidity, 24 hours
Experimental: On a black drawing paper having 38 mm in diameter, 0.2 ml of an acetone solution of the Pyrone Compound was added dropwise and air-dried. The treated dosage was 800 mg/m^2. The drawing paper was set on an aluminum plate having 38 mm in diameter and adhesives were put on the edge to prevent for tested mites to escape. About 30 adult American house dust mites (Dermatophagoides farinae) were released on the drawing paper and kept at 25° C. and 65% of humidity for 24 hours. After that, the mortality was observed. The result was 100%.

[9] = tested on: whiteflies (Bemisia argentifolii); test: Test Example 16: foliar spray on cabbage, whiteflies; conditions: 500 ppm dilution of flowable (Preparation example 7), 30 ml sprayed, after 6 days
Experimental: About 50 whiteflies (Bemisia argentifolii) were put on a cabagge leaf (in first-leaf stage) grown in a 90 ml plastic cup.
The formulation obtained in Preparation example 7 was diluted with water containing a spreading agent (Tokurino produced by Nihon Nohyaku Co.) to make the concentration of the Pyrone Compound to 500 ppm. Thirty milliliters (30 ml) of the dilution were sprayed to the cabbage (in first-leaf stage) and air-dried. The plastic pot was allowed to stand at 25±2° C. in a greenhouse. After 6 days, the mortality was 90% or more.

[10] = tested on: eggs of peach fruit moth (Carposina niponensis); test: Test Example 20: treated artificial food, peach fruit moth eggs; conditions: 1 ml of 500 ppm dilution (Preparation example 2) in 6 g artificial food, after 10 days
Experimental: The formulation obtained in Preparation example 2 was diluted with water to make the concentration of the Pyrone Compound to 500 ppm. One milliliter (1 ml) of the dilution was added to 6 g of artificial food (Insecta LF produced by Nihon Nosankogyo Co.) in plastic cup having 5.5 cm in diameter. About 50 eggs of peach fruit moth (Carposina niponensis) laid on nylon cloth were put into the plastic cup. After 10 days, the ovicidal effect was 90% or more.

## Cc1cc(O)c(C(=O)CC(C)C)c(=O)o1 [The Pyrone Compound]
[1]
  Knock-down percentage (%) 15 min. after spraying: 95%
[2]
  knock-down percentage at 15 minutes after spraying: 100%
[3]; after 2 hours
  Knock-down percentage (%): 100%
[3]; after 7 days
  Mortality (%): 100%
[4]; after 2 hours
  Knock-down percentage (%): 100%
[4]; after 7 days
  Mortality (%): 75%
[5]; after 7 days
  Mortality (%): 100%
[5]; two hours
  Knock-down percentage (%): 100%
[6]
  Knock-down percentage (%): 98%
[7]; dosage 5 mg/m^2, after 7 days
  Hatching ratio (%): 1.7%
[7]; dosage 25 mg/m^2, after 7 days
  Hatching ratio (%): 0%
[7]; dosage 125 mg/m^2, after 7 days
  Hatching ratio (%): 0%
[8]
  mortality: 100%
[9]
  mortality: ≥ 90%
[10]
  ovicidal effect: ≥ 90%
